According to US8198441B2, “Process for the preparation of novel pyridopyrazines as mTOR kinase inhibitors” (AstraZeneca AB, priority 2008, dated 2012):
Read-outs that look alike come from different tables or passages of the source.

Assays:
[1] = TIM-1 multi-compartmental in vitro model, bioaccessibility; format: in vitro ADME; conditions: for recovery at 10 mg/mL: TIM-1 multi-compartmental in vitro gastrointestinal model, read-out: Total recovery
Experimental: Bioaccessibility of a compound of Formula 5a in the form of a free base and a fumarate salt was assessed using a TIM-1 multi-compartmental in vitro model (TNO Quality of Life, The Netherlands).
Initial assessment of solutions and suspensions of the free base form at concentrations of 10 mg/mL and doses of 200 mg and 500 mg were performed using a standard protocol (lipid-fasted with starting gastric pH of 2 and a gastric half-time of 30 minutes).
A further study was performed with an increased initial gastric pH of 5 and a reduced gastric half-time of 20 min. In this study, 200 mg (free base equivalent) doses of 10 mg/mL suspensions of the free base and fumarate salt of the compound of Formula 5a were compared (see Table 4, FIG. 8).

[2] = Stability study of the fumarate salt in the solid state; format: physicochemical
Experimental: The stability of the fumarate salt of the compound of Formula 5a in the solid state was investigated for samples stored at 25° C./60% relative humidity (RH) in double lined polyethylene bags inside a fibreboard outer for long term stability testing. […] AH (ambient humidity) in double lined polyethylene bags inside fibreboard outers. Further stress testing was performed on exposed samples at 40° C./75% RH and at ambient temperature in a light chamber (exposed to a minimum of 1.2 million lux hours visible light and 200 watt-hours/m^2 UV light), as shown in Table 5.

## COc1ccc(-c2ccc3c(N4CCOC[C@@H]4C)nc(N4CCOC[C@@H]4C)nc3n2)cc1CO [Formula 5a free base, (5-{2,4-bis[(3S)-3-methylmorpholin-4-yl]pyrido[2,3-d]pyrimidin-7-yl}-2-methoxyphenyl)methanol]
[1]; 200 mg (free base equivalent), pH 5, 200 mg (free base equivalent) of 10 mg/mL suspension, initial gastric pH 5, gastric half-time 20 min
  recovery at 10 mg/mL: 93%
[1]; 200 mg, pH 2, 200 mg solution, 10 mg/mL, lipid-fasted, starting gastric pH 2, gastric half-time 30 min
  recovery at 10 mg/mL: 96.8%
[1]; 200 mg, pH 2, 200 mg suspension, 10 mg/mL, lipid-fasted, starting gastric pH 2, gastric half-time 30 min
  recovery at 10 mg/mL: 97.6%
[1]; 200 mg, pH 2, Table 4: 200 mg suspension, gastric pH 2
  recovery at 10 mg/mL: 97.6%
[1]; 500 mg, pH 2, 500 mg solution, 10 mg/mL, lipid-fasted, starting gastric pH 2, gastric half-time 30 min
  recovery at 10 mg/mL: 93.6%
[1]; 500 mg, pH 2, 500 mg suspension, 10 mg/mL, lipid-fasted, starting gastric pH 2, gastric half-time 30 min
  recovery at 10 mg/mL: 91.7%

## COc1ccc(-c2ccc3c(N4CCOC[C@@H]4C)nc(N4CCOC[C@@H]4C)nc3n2)cc1CO.O=C(O)/C=C/C(=O)O [Formula 5a fumarate salt, (5-{2,4-Bis[(3S)-3-methylmorpholin-4-yl]pyrido[2,3-d]pyrimidin-7-yl}-2-methoxyphenyl)methanol Fumarate salt]
[2]; 1 month, 40° C./75% RH exposed
  Assay (water and solvent-free, % w/w): 100.3 % w/w
  Organic impurities: Largest single impurity (% w/w): 0.16 % w/w
  Total organic impurities (% w/w): 0.36 % w/w
  Water content (% w/w): 5.0 % w/w
[2]; 3 months, 25° C./60% RH
  Assay (water and solvent-free, % w/w): 99.7 % w/w
  Organic impurities: Largest single impurity (% w/w): 0.16 % w/w
  Total organic impurities (% w/w): 0.31 % w/w
  Water content (% w/w): 4.5 % w/w
[2]; 3 months, 40° C./75% RH
  Assay (water and solvent-free, % w/w): 99.3 % w/w
  Organic impurities: Largest single impurity (% w/w): 0.16 % w/w
  Total organic impurities (% w/w): 0.26 % w/w
  Water content (% w/w): 5.6 % w/w
[2]; 3 months, 50° C.
  Assay (water and solvent-free, % w/w): 96.8 % w/w
  Organic impurities: Largest single impurity (% w/w): 0.16 % w/w
  Total organic impurities (% w/w): 0.44 % w/w
  Water content (% w/w): 0.6 % w/w
[2]; 25° C./60% RH, 40° C./75% RH and 50° C. AH, 3 months
  degradation on storage: no significant degradation
[2]; 10 days, light-exposed
  Assay (water and solvent-free, % w/w): 95.5 % w/w
  Organic impurities: Largest single impurity (% w/w): 0.97 % w/w
  Total organic impurities (% w/w): 2.28 % w/w
  Water content (% w/w): 5.0 % w/w
[2]; Initial
  Assay (water and solvent-free, % w/w): 99.4 % w/w
  Organic impurities: Largest single impurity (% w/w): 0.16 % w/w
  Total organic impurities (% w/w): 0.31 % w/w
  Water content (% w/w): 3.4 % w/w
[2]; light chamber, minimum 1.2 million lux hours visible and 200 watt-hours/m2 UV
  effect of exposure to light under stress conditions: darkened on exposed surfaces and a loss of assay and corresponding increase in organic impurities
[2]; stored at 50° C.
  thermal degradation: some evidence of thermal degradation
[1]; 200 mg (free base equivalent) of 10 mg/mL suspension, initial gastric pH 5, gastric half-time 20 min
  Total recovery: 95.12
